# Entries after “also recorded” stand apart in the source; their conditions may differ.
# Legend:
# [1] = Permanent wave evaluation of waving lotions on hair tresses (waving efficiency); details: for Percent Waving Efficiency / Tress Length (cm) Lt: amine 0.75M with 13.2 wt. % (0.8M) GMT, pH 7.5, 37° C. for 20 minutes; for Tress Length (cm) Lt: length of permed hair measured in the water, shorter = tighter curl
# Description: The pH was adjusted using a 10 wt. % HCl solution. Tresses were rolled onto mandrels and evaluated using the permanent wave evaluation procedure that follows. Procedure for Permanent Wave Evaluation […] 1. A bundle of 16 inch long medium virgin brown hair was secured with beeswax by dipping approximately 2 inches of the root end of the bundled hair into melted wax for 5 seconds. When the wax is cool to the touch, it is shaped into a square and allowed to harden. 2. Hair is broken into smaller bundles, washed with a 10 wt. % sodium lauryl sulfate solution and then rinsed. 3. Hair is sectioned into tresses of 45 hairs and the waxed end is re-waxed to further secure the tress. The wax is allowed to dry, and a piece of tape is wrapped around it to provide a writing surface. […] 4. An 8 cm long, 1.25 cm diameter spiral rod with 25 turns is used. The waxed end of the hair is secured between the 9th and 10th turns using a rubber band. […] 5. A piece of tape, width 2.5 cm, is wrapped sideways around the bottom edge of the hair, covering the bottom 2.5 cm. A 3.4 g alligator clip is used to secure the tape. Using a piece of copper wire as a hook, a 6 oz. weight is hung from the tape at the bottom of the hair. The hair is rolled around the rod, using the weight to provide equal tension during rolling. The weight is removed after rolling, and the bottom tape is secured around the rod with a piece of Tygon tubing. 6. […] The solution completely covers the hair. The test tube is placed in a constant temperature water bath at 37° C. for 20 minutes. 7. The rod is removed and rinsed for 3 minutes under running tap water at approximately 30° C. and a flow rate of approximately 1 liter/minute. The rod is then placed into a new test tube with 10 mL of neutralizer (2 wt. % hydrogen peroxide, 0.05 wt. % polyquat-11, and phosphoric acid to pH 3.1). The rod is removed and rinsed with the 30° C. tap water for 2 minutes. 8. The tress is soaked in a bowl of 30° C. tap water for 5 minutes to allow complete oxidation. The tress is then carefully unrolled from the rod without tension, starting from the bottom and keeping the spiral configuration intact. The tape is cut off the hair using scissors while the hair is still on the rod. […] 10. […] A glass container (10×11.5×4 in) is used in which clear plastic rulers are glued along the front and back walls. A copper wire is secured across the top of the container. The rulers should be lined up to provide a way to accurately measure the hair. A copper wire hook is placed through the tape at the top of the tress and hung on the wire. […] Waving Efficiency After the procedure, the lengths of the tresses were measured in a water bath. The shorter the tress, the tighter the curl and the better the product. The curl is measured from the end of the wax to the end of the curl. [formula] where Li=initial length of tress from wax end to tip Lo=length of tress when wrapped on the rod Lt=length of permed hair from wax end to tip, measured in the water
# [2] = pKa and free amine of the alkalizer; assay type: physicochemical; details: at a pH of about 7.5
free amine [2],free amine ([2]; listed as monoethanolamine),Compound,Percent Waving Efficiency [1],Tress Length (cm) Lt [1],"performance as alkalizer in waving lotion (in words) ([1]; low pH waving lotion, in combination with a reducing agent)"
one,1%,NCCO [Monoethanolamine],45.4%,16.1 ± 0.5 cm,–
–,–,N [Ammonia],47.8%,15.5 ± 1.2 cm,–
about 22%,–,"NC(CO)(CO)CO [Tris, tris(hydroxymethyl)amino methane]",–,15.7 ± 0.9 cm,effective alkalizer; also recorded: better results than monoethanolamine
